Broadly, the Ki is the dissociation constant of the complex between target and ligand, obtained from inhibition or displacement. Read a high Ki as a looser hold on the target.

Molecules are shown by their SMILES.

In the assay the target is Protease (Human immunodeficiency virus 1, UniProt Q9YQ12). In words: Inhibition of Human immunodeficiency virus 1 protease.
Protease, sequence (Q9YQ12 whole entry): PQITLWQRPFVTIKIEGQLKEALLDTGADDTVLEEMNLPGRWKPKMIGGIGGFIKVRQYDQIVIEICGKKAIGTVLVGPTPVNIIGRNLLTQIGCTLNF
Regarding `O=C1N(Cc2ccccc2)C(Cc2ccccc2)C(O)C(C(Br)Cc2ccccc2)N1Cc1ccccc1` (centres undefined), the Ki was 186 nM.

Take `O=C1NC(CCc2ccccc2)C(O)C(Cc2ccccc2)N1Cc1ccccc1` (centres undefined): the Ki was 66.1 nM.

Take `N#Cc1cccc(CN2C(=O)NC(CCc3ccccc3)C(O)C2Cc2ccccc2)c1` (centres undefined): the Ki is 15.1 nM. Against the preceding compound, the Ki is about 4.4-fold lower.

`Nc1cccc(CN2C(=O)NC(CCc3ccccc3)C(O)C2Cc2ccccc2)c1` (centres undefined) gave an inhibitory constant (Ki) of 158 nM. This Ki lies about 10-fold higher than the previous one. With `Nc1cccc(CN2C(=O)NC(Cc3ccccc3)C(O)C2CCc2ccccc2)c1` (centres undefined), the Ki is 6.17 nM. `N#Cc1cccc(CN2C(=O)N(Cc3cccc(C#N)c3)C(Cc3ccccc3)C(O)C2CCc2ccccc2)c1` (centres undefined) had a Ki of 11 nM. In the case of `CC(=O)c1cccc(CN2C(=O)N(Cc3cccc(C(C)=O)c3)C(Cc3ccccc3)C(O)C2CCc2ccccc2)c1` (centres undefined), the Ki was 0.912 nM.

`NC(=O)c1cccc(CN2C(=O)N(Cc3cccc(C(N)=O)c3)C(Cc3ccccc3)C(O)C2CCc2ccccc2)c1` (centres undefined) showed a Ki of 0.0891 nM. In turn, `NC(=O)c1cccc(CN2C(=O)N(Cc3cccc(C(N)=O)c3)C(Cc3ccc(F)cc3)C(O)C2CCc2ccc(F)cc2)c1` (centres undefined) had a Ki of 0.309 nM. `NC(=O)c1cccc(CN2C(=O)N(Cc3cccc(C(N)=O)c3)C(Cc3ccc(F)c(F)c3)C(O)C2CCc2ccc(F)c(F)c2)c1` (centres undefined) showed a Ki of 0.151 nM. The compound `N/C(=N/O)c1cccc(CN2C(=O)N(Cc3cccc(/C(N)=N\O)c3)C(Cc3ccc(F)cc3)C(O)C2CCc2ccc(F)cc2)c1` (centres undefined) had a Ki of 0.02 nM.

The compound `N/C(=N/O)c1cccc(CN2C(=O)N(Cc3cccc(/C(N)=N\O)c3)C(Cc3ccc(F)c(F)c3)C(O)C2CCc2ccc(F)c(F)c2)c1` (centres undefined) showed a Ki of 0.01 nM.

On to `N/C(=N/O)c1cc(CN2C(=O)N(Cc3ccc(F)c(/C(N)=N\O)c3)C(Cc3ccc(F)c(F)c3)C(O)C2CCc2ccccc2)ccc1F` (centres undefined), for which the Ki was 0.0603 nM. Consider `Nc1cccc(CN2C(=O)N(Cc3cccc(N)c3)C(Cc3ccccc3)C(O)C2CCc2ccccc2)c1` (centres undefined), for which the Ki is 1.7 nM. The figure for `Nc1ccc(CN2C(=O)N(Cc3ccc(N)c(F)c3)C(Cc3ccccc3)C(O)C2CCc2ccccc2)cc1F` (centres undefined) is 7.94 nM; for `CNc1cccc(CN2C(=O)N(Cc3cccc(NC)c3)C(Cc3ccccc3)C(O)C2CCc2ccccc2)c1` (centres undefined) it is 22.9 nM; for `O=C1N(Cc2cccc(-n3cccn3)c2)C(CCc2ccccc2)C(O)C(Cc2ccccc2)N1Cc1cccc(-n2cccn2)c1` (centres undefined) it is 0.1 nM. `O=C1N(Cc2ccc3[nH]ncc3c2)C(CCc2ccccc2)C(O)C(Cc2ccccc2)N1Cc1ccc2[nH]ncc2c1` (centres undefined) had a Ki of 0.0603 nM.

Regarding `Cc1n[nH]c2ccc(CN3C(=O)N(Cc4ccc5[nH]nc(C)c5c4)C(Cc4ccccc4)C(O)C3CCc3ccccc3)cc12` (centres undefined), the Ki was 0.1 nM. As to `Nc1n[nH]c2ccc(CN3C(=O)N(Cc4ccc5[nH]nc(N)c5c4)C(Cc4ccccc4)C(O)C3CCc3ccccc3)cc12` (centres undefined), affinity was put at a Ki of 0.0302 nM.

`O=C1N(Cc2cccc(O)c2)C(Cc2ccccc2)C(O)C(C(F)Cc2ccccc2)N1Cc1cccc(O)c1` (centres undefined) showed an inhibition constant (Ki) of 12 nM. Against the preceding compound, the Ki is about 400-fold higher. The compound `O=C1N(Cc2cccc(CO)c2)C(Cc2ccccc2)C(O)C(C(Br)Cc2ccccc2)N1Cc1cccc(CO)c1` (centres undefined) showed a Ki of 11 nM.

`N#Cc1cc(CN2C(=O)NC(CCc3ccccc3)C(O)C2Cc2ccccc2)ccc1F` (centres undefined) had an inhibition constant (Ki) of 110 nM.

Turning to `NC(=O)c1cccc(CN2C(=O)NC(CCc3ccccc3)C(O)C2Cc2ccccc2)c1` (centres undefined), the Ki was 5.62 nM. `NC(=O)c1cc(CN2C(=O)NC(CCc3ccccc3)C(O)C2Cc2ccccc2)ccc1F` (centres undefined): the Ki was 14.1 nM. The compound `N/C(=N/O)c1cccc(CN2C(=O)NC(CCc3ccccc3)C(O)C2Cc2ccccc2)c1` (centres undefined) showed a Ki of 0.24 nM. Against the preceding compound, the Ki is about 59-fold lower.

On to `N/C(=N/O)c1cc(CN2C(=O)NC(CCc3ccccc3)C(O)C2Cc2ccccc2)ccc1F` (centres undefined), for which affinity was put at a Ki of 1.41 nM. Against the preceding compound, the Ki is about 5.9-fold higher. Regarding `Cc1n[nH]c2ccc(CN3C(=O)NC(CCc4ccccc4)C(O)C3Cc3ccccc3)cc12` (centres undefined), the Ki is 0.38 nM. This Ki is about 3.7-fold lower than that of the compound before. The compound `O=C1NC(CCc2ccccc2)C(O)C(Cc2ccccc2)N1Cc1ccc2[nH]ncc2c1` (centres undefined) showed a Ki of 1.2 nM. For the compound `N#Cc1cc(CN2C(=O)N(Cc3ccccc3)C(Cc3ccccc3)C(O)C2CCc2ccccc2)ccc1F` (centres undefined), affinity was put at a Ki of 33.1 nM.

Take `N#Cc1cc(CN2C(=O)N(Cc3ccccc3)C(CCc3ccccc3)C(O)C2Cc2ccccc2)ccc1F` (centres undefined): the affinity, expressed as Ki, was 39.8 nM.

The compound `Nc1n[nH]c2cc(CN3C(=O)N(Cc4ccccc4)C(Cc4ccccc4)C(O)C3CCc3ccccc3)ccc12` (centres undefined) had a Ki of 0.646 nM. This Ki is about 62-fold lower than that of the compound before. Compound `Nc1n[nH]c2ccc(CN3C(=O)N(Cc4ccccc4)C(CCc4ccccc4)C(O)C3Cc3ccccc3)cc12` (centres undefined) gave an inhibitory constant (Ki) of 0.282 nM.

`Cc1n[nH]c2cc(CN3C(=O)N(Cc4cccc(N)c4)C(Cc4ccccc4)C(O)C3CCc3ccccc3)ccc12` (centres undefined) had a Ki of 0.129 nM. `N#Cc1cccc(CN2C(=O)N(Cc3cccc(N)c3)C(Cc3ccccc3)C(O)C2CCc2ccccc2)c1` (centres undefined) had an inhibitory constant (Ki) of 1.58 nM.

As to `Nc1cccc(CN2C(=O)N(Cc3ccc4c(N)n[nH]c4c3)C(CCc3ccccc3)C(O)C2Cc2ccccc2)c1` (centres undefined), the Ki was 0.1 nM. As to `N#Cc1cccc(CN2C(=O)N(Cc3cccc(C#N)c3)C(Cc3cccc(F)c3)C(O)C2CCc2ccc(F)cc2)c1` (centres undefined), the affinity corresponds to a Ki of 14.1 nM.

`Nc1cc(CN2C(=O)N(Cc3ccc(F)c(N)c3)C(Cc3ccccc3)C(O)C2CCc2ccccc2)ccc1F` (centres undefined) gave a Ki of 0.251 nM. Against the preceding compound, the Ki is about 56-fold lower. As to `Cc1ccc(C(=O)Nc2cccc(CN3C(=O)N(Cc4cccc(NC(=O)c5ccc(C)cn5)c4)C(Cc4ccccc4)C(O)C3CCc3ccccc3)c2)nc1` (centres undefined), the inhibition constant Ki was 0.0794 nM. Compound `CN1C=CSC1C(=O)Nc1cccc(CN2C(=O)N(Cc3cccc(NC(=O)C4SC=CN4C)c3)C(Cc3ccccc3)C(O)C2CCc2ccccc2)c1` (centres undefined) showed a Ki of 0.0302 nM. In the case of `O=C1NC(Cc2ccccc2)C(O)C(CCc2ccccc2)N1Cc1ccc2cn[nH]c2c1` (centres undefined), the affinity corresponds to a Ki of 43.7 nM. This Ki lies about 1400-fold higher than the previous one. Take `Nc1cccc(CN2C(=O)N(Cc3ccc4cn[nH]c4c3)C(Cc3ccccc3)C(O)C2CCc2ccccc2)c1` (centres undefined): the affinity corresponds to a Ki of 0.0794 nM. The figure for `NC(=O)c1cccc(CN2C(=O)N(Cc3cccc(N)c3)C(Cc3ccccc3)C(O)C2CCc2ccccc2)c1` (centres undefined) is 0.0603 nM. `O=C1N(Cc2ccccc2)C(CCc2ccccc2)C(O)C(Cc2ccccc2)N1Cc1ccccc1` (centres undefined) showed an inhibition constant Ki of 15.1 nM.

The record behind these values is ChEMBL document CHEMBL3045630, “Predictive QSAR modeling on tetrahydropyrimidine-2-one derivatives as HIV-1 protease enzyme inhibitors” (Med Chem Res, 2013).
